# Measured values: publication PMC9606171, “Synthetic PPAR Agonist DTMB Alleviates Alzheimer’s Disease Pathology by Inhibition of Chronic Microglial Inflammation in 5xFAD Mice” (Neurotherapeutics, 2022)
# What was measured:
# 5xFAD mice [1] = assay: Immunohistochemistry of Aβ plaques (6e10) in 5xFAD brain; type: in vivo; conditions: 10 mg/kg orally, 3 months, versus transgenic control
# Experimental: (§1) DTMB was synthesized from Daejung Chemicals (Korea) and was dissolved in dimethyl sulfoxide (Sigma Aldrich, St. Louis, MO, USA) for cell-based experiments. To evaluate the effects of DTMB on 5xFAD mice, DTMB (10 mg/kg) and vehicle (1% carboxymethylcellulose and 10% DMSO) were orally administrated to four groups (wild-type, wild-type + DTMB, 5xFAD, and 5xFAD + DTMB) with a 6 day per week for 3 months.
# Mice were perfused with ice-cold phosphate-buffered saline (PBS). Brain tissues were separately used for either molecular analysis or immunohistochemistry. The right hemisphere was fixed with 4% PFA and was transferred to a sucrose solution (30%) for 24 h. The right hemisphere was embedded and frozen in optimal cutting temperature compound on dry ice. Coronal Sections (18 μm thick) that included the hippocampus were cut and prepared on slide glasses. Tissue sections were then permeabilized and blocked using a blocking solution (5% goat serum and 0.2% Triton X-100 in PBS) for 1 h at room temperature. Primary antibody incubation was performed overnight at 4 °C using an anti-6e10 antibody (Biolegend, Japan, 1:100), anti-Iba1 antibody (Wako, Japan, 1:200), and anti-GFAP antibody (Abcam, Cambridge, UK, 1:200). […] Slides were counterstained in Hoechst and then mounted in fluorescence mounting medium (Dako, Denmark). […] Fluorescence was measured by calculating % area and was analyzed using ImageJ. […]
# 5xFAD mice [2] = assay: Soluble/insoluble Aβ extraction, western blot and filter-trap assay; type: in vivo; conditions: 10 mg/kg orally, 3 months
# Experimental: as §1
# To investigate soluble and insoluble Aβ components, two extraction steps were performed. Left hemisphere samples were homogenized in cold Tris-buffered saline (TBS consisting of 50 mM Tris-pH 7.5 and 150 mM NaCl) with a protease inhibitor cocktail (Thermo Fisher Scientific, Waltham, MO, USA) at a concentration of 100 mg/mL. After centrifugation at 15,000 rpm for 1 h at 4 °C, the supernatant of the samples was used to conduct western blotting. Insoluble protein was extracted from the pellet by dissolving in 5 M guanidine buffer (5 M guanidine HCl and 150 mM NaCl-pH 7.5). Soluble and insoluble protein samples were stored at −80 °C.
# The insoluble fraction of protein lysates in 5xFAD mice was diluted in 1% SDS-PBS and boiled at 95 °C for 5 min. The membrane was pre-equilibrated with 1 × TBS. A dot blotter apparatus (Bio-Rad Laboratories, Hercules, CA, USA) was used for sample application, and 6e10 antibody was used to detect Aβ contents from brain lysates of 5xFAD mice treated with DTMB. […]
# 5xFAD mice [3] = assay: Y-maze test in 5xFAD mice; type: in vivo; conditions: 10 mg/kg orally, 3 months
# Experimental: as §1
# The Y-maze test was conducted using a black y-shaped maze apparatus that has three equal-sized arms (40 × 3 × 12 cm) separated at 120° angles. The mice were placed into the same side of the arm at every trial and freely moved for 8 min under the dim light conditions (50 lx). To measure spatial memory, the number of arm entries to other sides was measured. The percentage of spontaneous alternation was calculated using the following formula: 100×(ActualAlteration/(Total#ofarmentrance-2)) . Sample sizes were 20–25 mice per group.
# BV2 = assay: Cell viability assay (MTT), BV2; type: cell-based, mouse; conditions: 48 h
# Experimental: Cell viability was measured by chromogenic assay involving the biological reduction of 3-(4,5-dimethyl-thiazol-2-yl)-2,5-diphenyltetrazoliumbromide (MTT) to formazan in living cells. Briefly, cells were seeded in 96-well plates in a final volume of 100 μL. After 24 h, the culture media were replaced with fresh media containing DTMB compounds, and the cells were cultured for another 48 h. Next, MTT (5 mg/mL in PBS) was added to the culture medium. The cells were incubated for 1 h in the dark at 37 °C, and the supernatant was then removed from the well. Total MTT solvent (4 mM HCl and 0.1% Nonidet P-40, both in isopropanol) was added to dissolve the formazan crystal, and absorbance was measured at 570 nm using a microplate reader Infinite 200 Pro NanoQuant microplate reader (TECAN, Switzerland).
# BV2 cells = assay: Western blot of NF-κB, NLRP3 and ASC in BV2 cells; type: cell-based, mouse
# Experimental: The BV2 mouse microglia cell line was received from Professor K. H. Suk (Kyungpook National University, Korea). BV2 cells were cultured with Dulbecco’s Modified Eagle Medium (DMEM) (Hyclone, Logan, UT, USA), containing 5% fetal bovine serum (FBS, Hyclone) and 50 μg/mL of gentamicin (Lonza, Switzerland), in a 5% CO2 incubator with a humidified atmosphere at 37 °C. RAW 264.7 macrophage cells were cultured with DMEM that contains 10% FBS and 1% penicillin/streptomycin in a 5% CO2 incubator with a humidified atmosphere at 37 °C.
# Cells were lysed with lysis buffer containing 50 mM Tris (pH 7.4), 140 mM NaCl, 5 mM EDTA, and a protease inhibitor tablet, followed by sonication. Lysate protein concentrations were determined using Bradford reagents (AMERSCO, MA, USA). Proteins were resolved by sodium dodecyl sulfate (SDS) polyacrylamide gel electrophoresis, transferred to nitrocellulose membranes (Pall Corporation, New York, NY, USA), and incubated with blocking buffer (5% nonfat dry milk in TBS and 0.1% Tween 20) for 30 min. Western blot analyses were performed using primary antibodies against NF-κB, NLRP3, ASC, nicastrin, pen2 (Cell Signaling Technology, Danvers, MA, USA), Aph1 (Invitrogen), amyloid C-terminal fragment (Santa Cruz Biotechnology, Dallas, TX, USA), and GAPDH (Bethyl Laboratories, Mongomery, TX, USA). Secondary antibodies of rabbit (Promega), rat, and goat (Bethyl Laboratories) were used, and detection was performed with SUPEX ECL reagent (Neuronex, Korea) and an ImageQuant LAS-4000 (GE Healthcare, MA, USA), according to the manufacturer’s instructions. The integrated blot density was quantified through ImageJ.
# 5xFAD mice [4] = assay: Bulk RNA-seq of hippocampus and cortex; type: in vivo
# Experimental: as §1
# RNA-seq libraries were prepared using the NEBNext® Ultra II Directional RNA Library Prep Kit for Illumina (BioLabs, MA, USA) and sequenced on Illumina HiSeq 2500 (San Diego, CA, USA). RNA-seq reads with adapter sequence were trimmed using cutadapt and aligned to the Mouse Ensemble Archive Release 100 by STAR [26]. Gene expression levels were quantified by RSEM [27]. Differential expression analysis was performed by DESeq2 [28], and functional enrichment of Gene ontology (GO) terms and pathways was estimated by Metascape. Pathway enrichment was estimated by GSEA [30] with the following options: “-metric log2_Ratio_of_Classes -permute gene_set.”
smiles,measurement,setting,value
COc1ccc(-c2cc(=O)oc3c(C)c(OC(=O)[C@H](Cc4c[nH]c5ccccc45)NC(=O)OC(C)(C)C)ccc23)cc1 [DTMB],amount of Aβ aggregates in the hippocampus and cortex,5xFAD mice [1],significantly decreased
same,Aβ aggregates in the insoluble fraction,5xFAD mice [2]; 5xFAD mice brain lysates,decreased
same,amyloid beta monomer,5xFAD mice [2]; 5xFAD mice brain,not decreased
same,Y-maze alternation,5xFAD mice [3],improvement with a percentage similar to that of the wild-type mouse group
same,cytotoxicity (MTT),BV2,no cytotoxicity
same,protein level of ASC,BV2 cells,not changed
same,protein level of NF-κB,BV2 cells,decreased
same,protein level of NLRP3,BV2 cells,decreased
same,gene expression level of Ece1,5xFAD mice [4]; hippocampus,significantly increased
same,expression of neprilysin,"5xFAD mice [4]; hippocampus and cortex, not statistically significant (p-value is 0.27)",increased
